Results taken from US5393772A, “Use of, and method of treatment using, hydroxycarbazole compounds for inhibition of smooth muscle migration and proliferation” (Boehringer Mannheim Pharmaceuticals Corporation, priority 1993, dated 1995).

Test system: rat aortic vascular smooth muscle cells
Assay: PDGF-induced migration of rat aortic vascular smooth muscle cells (modified Boyden chamber, Transwell)
Assay type: cell-based
Details: for IC50: Rattus norvegicus, PDGF-induced migration, 24 h at 37° C, by position of OH group
Protocol: The procedure for assessing vascular smooth muscle cell migration was described previously in Hidaka, Y., Eda, T., Yonemoto, M. & Kamei, T. (1992) Atheroscler. 95, 87-94. Briefly, rat aortic vascular smooth muscle cells (passage 3) were suspended (1×10^6 cells/ml) in serum free DMEM supplemented with 0.2% (w/v) bovine serum albumin (Sigma). Migration assays were performed in modified Boyden chambers using Transwell (Costar, Cambridge, Mass.) cell culture chambers with a polycarbonate 8μm pore size membrane. PDGF was dissolved in DMEM and placed in the lower compartment in the presence, or absence, of compounds of Formula (I) wherein R1, R2, R3, R5, R6 or R8 are independently OH. Vascular smooth muscle cells (5×10^5) were then loaded in the upper compartment and incubated for 24 h at 37° C. in a humidified atmosphere containing 5% CO2. Non-migrated cells on the upper surface were scraped away gently and washed three times with PBS. Filters were fixed in methanol and stained with Giemsa. The number of vascular smooth muscle cells per 100×high power field (HPF) that had migrated to the lower surface of the filters was determined microscopically. Four HPFs were counted per filter. Experiments were performed either in duplicate or triplicate.
PDGF produced concentration-dependent increases in the migration of rat vascular smooth muscle cells with maximal effect obtained at a concentration of 1 nM. […] IC50 values for compounds of Formula (I) wherein R1, R2, R3, R5, R6 or R8 are independently OH were as follows.

| Compound | IC50 | concentration of maximal effect on migration (PDGF as chemoattractant, without inhibitor) |
| --- | --- | --- |
| COc1ccc(O)cc1OCCNCC(O)COc1cccc2[nH]c3ccccc3c12 (stereo not shown) [R2] | 410 nM | – |
| COc1ccccc1OCCNCC(O)COc1ccc(O)c2[nH]c3ccccc3c12 (stereo not shown) [R5] | 180 nM | – |
| PDGF | – | 1 nM |

Continued by falling IC50, values first:

| IC50 | Compound | concentration of maximal effect on migration (PDGF as chemoattractant, without inhibitor) |
| --- | --- | --- |
| 1720 nM | COc1ccccc1OCCNCC(O)COc1cccc2[nH]c3c(O)cccc3c12 (stereo not shown) [R6] | – |
| 990 nM | COc1cc(O)ccc1OCCNCC(O)COc1cccc2[nH]c3ccccc3c12 (stereo not shown) [R1] | – |
| 360 nM | COc1ccccc1OCCNCC(O)COc1cccc2[nH]c3ccc(O)cc3c12 (stereo not shown) [R8] | – |
| 200 nM | COc1ccccc1OCCNCC(O)COc1c(O)ccc2[nH]c3ccccc3c12 (stereo not shown) [R3] | – |
